Like-named read-outs stand apart in the source and are kept apart here.
How the values were obtained:
[1] = system: Abutilon theophrasti (ABUTH), velvetleaf; experiment: Postemergence herbicide evaluation, growth of Abutilon theophrasti (ABUTH); type: in vivo; details: Abutilon theophrasti, post-emergence, read-out: AVE. ABUTH
[2] = system: Amaranthus rudis (AMATA), tall water hemp; experiment: Postemergence herbicide evaluation, growth of Amaranthus rudis (AMATA); type: in vivo; details: Amaranthus tuberculatus, post-emergence, read-out: Ave. AMATA
[3] = Volatility of compounds measured by thermogravimetric analysis (TGA); type: physicochemical
[4] = system: weeds ABUTH, AMATA, AMBEL, CHEAL, ERICA; experiment: Postemergence herbicide evaluation, overall average % weed control across ABUTH, AMATA, AMBEL, CHEAL and ERICA; type: in vivo; details: post-emergence, read-out: Overall Ave % Weed Control
[5] = system: Chenopodium album (CHEAL), common lambsquarters; experiment: Postemergence herbicide evaluation, growth of Chenopodium album (CHEAL); type: in vivo; details: Chenopodium album, post-emergence, read-out: Ave. CHEAL
[6] = system: Ambrosia artemisiifolia (AMBEL), common ragweed; experiment: Postemergence herbicide evaluation, growth of Ambrosia artemisiifolia (AMBEL); type: in vivo; details: Ambrosia artemisiifolia, post-emergence, read-out: AVE. AMBEL

Structure (SMILES) | pest or weed control at 280 g/ha ([1]; 168 h) | pest or weed control at 560 g/ha ([1]; 168 h) | pest or weed control at 280 g/ha ([1]; 336 h) | pest or weed control at 560 g/ha ([1]; 336 h) | pest or weed control at 280 g/ha ([1]; 504 h) | pest or weed control at 560 g/ha ([1]; 504 h) | pest or weed control at 280 g/ha ([2]; 168 h) | pest or weed control at 560 g/ha ([2]; 168 h) | pest or weed control at 280 g/ha ([2]; 336 h) | pest or weed control at 560 g/ha ([2]; 336 h) | pest or weed control at 280 g/ha ([2]; 504 h) | pest or weed control at 560 g/ha ([2]; 504 h) | TGA Data (rate of weight loss, volatility) [3] | pest or weed control at 280 g/ha ([4]; 168 h) | pest or weed control at 280 g/ha ([4]; 504 h) | pest or weed control at 560 g/ha ([4]; 504 h) | pest or weed control at 280 g/ha ([5]; 504 h) | pest or weed control at 560 g/ha ([5]; 504 h) | pest or weed control at 280 g/ha ([6]; 504 h) | pest or weed control at 560 g/ha ([6]; 504 h) | also measured
O=C(COc1ccc(Cl)cc1Cl)OCCOC(=O)COc1ccc(Cl)cc1Cl [Compound B9] | 57.5% | 57.5% | 77.5% | 70% | 98.5% | 75% | 72.5% | 77.5% | 91% | 90% | 70% | 82.5% | 0.1482 µg/min | 75% | 92.5% | 89.9% | 97.5% | 92.5% | 100% | 100% | pest or weed control at 560 g/ha ([4]; 168 h): 72.3%; pest or weed control at 280 g/ha ([4]; 336 h): 86.5%; pest or weed control at 560 g/ha ([4]; 336 h): 86.6%; pest or weed control at 280 g/ha ([5]; 168 h): 82.5%; pest or weed control at 560 g/ha ([5]; 168 h): 77.5%; pest or weed control at 280 g/ha ([5]; 336 h): 94%; pest or weed control at 560 g/ha ([5]; 336 h): 95%; pest or weed control at 280 g/ha ([6]; 168 h): 77.5%; pest or weed control at 560 g/ha ([6]; 168 h): 74%; pest or weed control at 280 g/ha ([6]; 336 h): 70%; pest or weed control at 560 g/ha ([6]; 336 h): 85%
O=C(COc1ccc(Cl)cc1Cl)OCCCOC(=O)COc1ccc(Cl)cc1Cl [Compound B10] | 27.5% | 22.5% | 25% | 32.5% | 25% | 27.5% | 70% | 62.5% | 77.5% | 80% | 67.5% | 55% | 0.02488 µg/min | 62% | 72.2% | 68% | 88.5% | 85% | 90% | 75% | pest or weed control at 560 g/ha ([4]; 168 h): 58%; pest or weed control at 280 g/ha ([4]; 336 h): 64.5%; pest or weed control at 560 g/ha ([4]; 336 h): 69.9%; pest or weed control at 280 g/ha ([5]; 168 h): 77.5%; pest or weed control at 560 g/ha ([5]; 168 h): 72.5%; pest or weed control at 280 g/ha ([5]; 336 h): 75%; pest or weed control at 560 g/ha ([5]; 336 h): 90%; pest or weed control at 280 g/ha ([6]; 168 h): 62.5%; pest or weed control at 560 g/ha ([6]; 168 h): 57.5%; pest or weed control at 280 g/ha ([6]; 336 h): 67.5%; pest or weed control at 560 g/ha ([6]; 336 h): 67.5%
O=C(COc1ccc(Cl)cc1Cl)OCCCCCCOC(=O)COc1ccc(Cl)cc1Cl [Compound B12] | – | – | – | – | 55% | 65% | – | – | – | – | 62.5% | 62.5% | 0.2274 µg/min | – | 82% | 82.9% | 96.5% | 90% | 100% | 100% | –
O=C(COc1ccc(Cl)cc1Cl)OCCOCCOCCOC(=O)COc1ccc(Cl)cc1Cl [Compound B13] | 55% | 45% | 62.5% | 57.5% | 67.5% | 62.5% | 67.5% | 75% | 95% | 87.5% | 65% | 67.5% | 0.2318 µg/min | 72% | 86% | 84.5% | 98.5% | 95% | 100% | 99% | pest or weed control at 560 g/ha ([4]; 168 h): 75.7%; pest or weed control at 280 g/ha ([4]; 336 h): 83.6%; pest or weed control at 560 g/ha ([4]; 336 h): 82.6%; pest or weed control at 280 g/ha ([5]; 168 h): 80%; pest or weed control at 560 g/ha ([5]; 168 h): 82.5%; pest or weed control at 280 g/ha ([5]; 336 h): 96.5%; pest or weed control at 560 g/ha ([5]; 336 h): 98%; pest or weed control at 280 g/ha ([6]; 168 h): 72.5%; pest or weed control at 560 g/ha ([6]; 168 h): 88.5%; pest or weed control at 280 g/ha ([6]; 336 h): 72.5%; pest or weed control at 560 g/ha ([6]; 336 h): 75%
